Laboratory results taken from US12227500B2, “Substituted pyrrolo[2,3-b]pyridines for suppressing toxic endoplasmic reticulum stress” (THE TRUSTEES OF COLUMBIA UNIVERSITY IN THE CITY OF NEW YORK, priority 2018, dated 2025).

Key:
Test in all cases: Radiolabeled ATP kinase assay, panel of 371 kinases (Table S6)
Type in all cases: biochemical
[1] = target: T1, panel of 371 human kinases (Homo sapiens, UniProt Q9Y6M4); conditions: CK1g3; 0.1 μM; 10 μM ATP; read-out: % Enzyme Activity (relative to DMSO controls)
T1 construct: purchased Reaction Biology Corp
T1 sequence (Q9Y6M4 whole entry): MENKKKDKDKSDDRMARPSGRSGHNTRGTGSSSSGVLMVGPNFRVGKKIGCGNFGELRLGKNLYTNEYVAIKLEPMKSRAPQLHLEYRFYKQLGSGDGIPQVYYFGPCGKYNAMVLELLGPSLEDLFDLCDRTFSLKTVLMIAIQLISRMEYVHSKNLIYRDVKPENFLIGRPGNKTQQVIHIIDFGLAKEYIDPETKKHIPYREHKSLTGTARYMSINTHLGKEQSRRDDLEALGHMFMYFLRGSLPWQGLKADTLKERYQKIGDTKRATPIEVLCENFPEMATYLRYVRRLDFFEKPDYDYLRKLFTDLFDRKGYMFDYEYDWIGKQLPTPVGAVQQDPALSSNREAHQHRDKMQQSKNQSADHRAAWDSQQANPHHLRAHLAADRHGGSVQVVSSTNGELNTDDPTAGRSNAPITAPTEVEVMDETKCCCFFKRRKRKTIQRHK
Description: (§1) ; FIG. 38C). […]. Further targeted analyses, such as genetic knock-down or knock-out, may be warranted to parse the role of these additional kinases in our model of neurodegeneration.

[2] = target: T2, panel of 371 human kinases (Homo sapiens, UniProt Q9H4B4); conditions: PLK3; 0.1 μM; 10 μM ATP; read-out: % Enzyme Activity (relative to DMSO controls)
T2 construct: purchased Reaction Biology Corp
T2 sequence (Q9H4B4 whole entry): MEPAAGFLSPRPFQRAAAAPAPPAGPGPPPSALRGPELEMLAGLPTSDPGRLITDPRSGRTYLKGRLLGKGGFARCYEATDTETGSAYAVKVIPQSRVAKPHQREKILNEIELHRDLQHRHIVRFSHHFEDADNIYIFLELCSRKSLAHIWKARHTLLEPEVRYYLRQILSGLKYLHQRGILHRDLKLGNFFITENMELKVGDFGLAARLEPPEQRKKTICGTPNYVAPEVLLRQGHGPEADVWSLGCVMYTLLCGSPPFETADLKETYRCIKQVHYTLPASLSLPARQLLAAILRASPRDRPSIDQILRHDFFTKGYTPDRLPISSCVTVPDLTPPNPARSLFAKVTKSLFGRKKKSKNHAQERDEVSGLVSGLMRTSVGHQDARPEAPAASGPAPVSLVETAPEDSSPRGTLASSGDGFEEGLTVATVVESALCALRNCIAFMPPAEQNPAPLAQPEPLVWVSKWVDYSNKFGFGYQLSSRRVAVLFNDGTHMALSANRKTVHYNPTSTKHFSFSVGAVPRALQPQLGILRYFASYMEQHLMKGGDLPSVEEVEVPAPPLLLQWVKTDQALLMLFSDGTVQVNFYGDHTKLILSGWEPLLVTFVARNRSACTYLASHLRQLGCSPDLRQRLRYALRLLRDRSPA
Description: as §1

[3] = target: T3, panel of 371 human kinases (Homo sapiens, UniProt Q02763); conditions: TIE2/TEK; 0.1 μM; 10 μM ATP; read-out: % Enzyme Activity (relative to DMSO controls)
T3 construct: purchased Reaction Biology Corp
Description: as §1

[4] = target: T4, panel of 371 human kinases (Homo sapiens, UniProt Q96NX5); conditions: CAMK1g; 0.1 μM; 10 μM ATP; read-out: % Enzyme Activity (relative to DMSO controls)
T4 construct: purchased Reaction Biology Corp
T4 sequence (Q96NX5 whole entry): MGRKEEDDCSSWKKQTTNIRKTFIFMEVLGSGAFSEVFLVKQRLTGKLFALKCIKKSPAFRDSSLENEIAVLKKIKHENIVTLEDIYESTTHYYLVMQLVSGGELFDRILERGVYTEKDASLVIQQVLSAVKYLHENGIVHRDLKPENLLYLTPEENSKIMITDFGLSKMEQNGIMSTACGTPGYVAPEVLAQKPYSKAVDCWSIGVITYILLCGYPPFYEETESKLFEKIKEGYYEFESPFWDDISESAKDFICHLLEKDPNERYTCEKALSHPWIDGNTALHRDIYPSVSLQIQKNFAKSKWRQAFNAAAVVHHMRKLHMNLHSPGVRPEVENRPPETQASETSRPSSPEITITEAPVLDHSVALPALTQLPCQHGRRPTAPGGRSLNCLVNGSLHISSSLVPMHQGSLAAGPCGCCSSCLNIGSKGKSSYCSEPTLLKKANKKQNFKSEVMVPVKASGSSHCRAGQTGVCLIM
Description: as §1

[5] = target: T5, panel of 371 human kinases (Homo sapiens, UniProt P11309); conditions: PIM1; 0.1 μM; 10 μM ATP; read-out: % Enzyme Activity (relative to DMSO controls)
T5 construct: purchased Reaction Biology Corp
Description: as §1

[6] = target: T6, panel of 371 human kinases (Homo sapiens, UniProt O15530); conditions: PDK1/PDPK1; 0.1 μM; 10 μM ATP; read-out: % Enzyme Activity (relative to DMSO controls)
T6 construct: purchased Reaction Biology Corp
Description: as §1

[7] = target: T7, panel of 371 human kinases (Homo sapiens, UniProt P21709); conditions: EPHA1; 0.1 μM; 10 μM ATP; read-out: % Enzyme Activity (relative to DMSO controls)
T7 construct: purchased Reaction Biology Corp
T7 sequence (P21709 26-976): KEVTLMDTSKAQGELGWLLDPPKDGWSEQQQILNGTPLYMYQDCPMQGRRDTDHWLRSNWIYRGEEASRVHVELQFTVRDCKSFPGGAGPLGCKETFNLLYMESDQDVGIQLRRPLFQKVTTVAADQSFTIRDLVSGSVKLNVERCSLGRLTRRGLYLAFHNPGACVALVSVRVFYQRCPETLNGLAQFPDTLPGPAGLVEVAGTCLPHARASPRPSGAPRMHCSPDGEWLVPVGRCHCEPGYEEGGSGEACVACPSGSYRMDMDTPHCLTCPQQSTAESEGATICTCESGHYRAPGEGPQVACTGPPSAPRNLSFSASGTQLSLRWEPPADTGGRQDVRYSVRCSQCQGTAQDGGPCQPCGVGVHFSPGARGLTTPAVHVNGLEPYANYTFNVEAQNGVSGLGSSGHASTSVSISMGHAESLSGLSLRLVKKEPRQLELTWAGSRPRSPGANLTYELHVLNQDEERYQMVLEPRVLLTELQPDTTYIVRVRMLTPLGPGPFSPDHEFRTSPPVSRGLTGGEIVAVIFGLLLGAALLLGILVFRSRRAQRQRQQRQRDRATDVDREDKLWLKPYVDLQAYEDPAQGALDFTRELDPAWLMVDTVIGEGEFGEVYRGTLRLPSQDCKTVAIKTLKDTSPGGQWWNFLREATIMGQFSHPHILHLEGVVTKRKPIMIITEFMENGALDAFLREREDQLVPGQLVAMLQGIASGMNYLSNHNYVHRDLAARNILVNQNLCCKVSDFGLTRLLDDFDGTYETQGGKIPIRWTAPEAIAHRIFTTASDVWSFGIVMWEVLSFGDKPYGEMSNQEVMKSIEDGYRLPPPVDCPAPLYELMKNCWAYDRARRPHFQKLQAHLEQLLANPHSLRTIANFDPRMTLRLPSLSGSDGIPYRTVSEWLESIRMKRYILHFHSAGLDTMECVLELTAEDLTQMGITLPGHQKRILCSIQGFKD
Description: as §1

[8] = target: T8, panel of 371 human kinases (Homo sapiens, UniProt O43781); conditions: DYRK3; 0.1 μM; 10 μM ATP; read-out: % Enzyme Activity (relative to DMSO controls)
T8 construct: purchased Reaction Biology Corp
Description: as §1

[9] = target: T9, panel of 371 human kinases (Homo sapiens, UniProt Q9NYL2); conditions: ZAK/MLTK; 0.1 μM; 10 μM ATP; read-out: % Enzyme Activity (relative to DMSO controls)
T9 construct: purchased Reaction Biology Corp
Description: as §1

[10] = target: T10, panel of 371 human kinases (Homo sapiens, UniProt Q8IWQ3); conditions: BRSK2; 0.1 μM; 10 μM ATP; read-out: % Enzyme Activity (relative to DMSO controls)
T10 construct: purchased Reaction Biology Corp
Description: as §1

[11] = target: T11, panel of 371 human kinases (Homo sapiens, UniProt Q12866); conditions: c-MER; 0.1 μM; 10 μM ATP; read-out: % Enzyme Activity (relative to DMSO controls)
T11 construct: purchased Reaction Biology Corp
Description: as §1

[12] = target: T12, panel of 371 human kinases (Homo sapiens, UniProt P43405); conditions: SYK; 0.1 μM; 10 μM ATP; read-out: % Enzyme Activity (relative to DMSO controls)
T12 construct: purchased Reaction Biology Corp
Description: as §1

[13] = target: T13, panel of 371 human kinases (Homo sapiens, UniProt P48730); conditions: CK1d; 0.1 μM; 10 μM ATP; read-out: % Enzyme Activity (relative to DMSO controls)
T13 construct: purchased Reaction Biology Corp
T13 sequence (P48730 whole entry): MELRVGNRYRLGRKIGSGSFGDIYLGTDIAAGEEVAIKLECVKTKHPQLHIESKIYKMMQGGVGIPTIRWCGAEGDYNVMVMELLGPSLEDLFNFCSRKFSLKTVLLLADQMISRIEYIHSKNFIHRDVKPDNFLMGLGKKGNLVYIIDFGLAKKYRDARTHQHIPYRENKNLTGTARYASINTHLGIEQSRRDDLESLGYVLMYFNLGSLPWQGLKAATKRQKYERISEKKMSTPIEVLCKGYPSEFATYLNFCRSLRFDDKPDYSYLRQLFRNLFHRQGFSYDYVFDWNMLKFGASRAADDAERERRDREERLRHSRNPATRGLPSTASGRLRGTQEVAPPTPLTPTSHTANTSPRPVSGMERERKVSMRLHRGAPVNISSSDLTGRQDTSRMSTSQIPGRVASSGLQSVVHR
Description: as §1

[14] = target: T14, panel of 371 human kinases (Homo sapiens, UniProt P51451); conditions: BLK; 0.1 μM; 10 μM ATP; read-out: % Enzyme Activity (relative to DMSO controls)
T14 construct: purchased Reaction Biology Corp
Description: as §1

[15] = target: T15, panel of 371 human kinases (Homo sapiens, UniProt P35968); conditions: KDR/VEGFR2; 0.1 μM; 10 μM ATP; read-out: % Enzyme Activity (relative to DMSO controls)
T15 construct: purchased Reaction Biology Corp
Description: as §1

[16] = target: T16, panel of 371 human kinases (Homo sapiens, UniProt O00506); conditions: STK25/YSK1; 0.1 μM; 10 μM ATP; read-out: % Enzyme Activity (relative to DMSO controls)
T16 construct: purchased Reaction Biology Corp
Description: as §1

[17] = target: T17, panel of 371 human kinases (Homo sapiens, UniProt Q13188); conditions: MST2/STK3; 0.1 μM; 10 μM ATP; read-out: % Enzyme Activity (relative to DMSO controls)
T17 construct: purchased Reaction Biology Corp
Description: as §1

[18] = target: T18, panel of 371 human kinases (Homo sapiens, UniProt P37023); conditions: ALK1/ACVRL1; 0.1 μM; 10 μM ATP; read-out: % Enzyme Activity (relative to DMSO controls)
T18 construct: purchased Reaction Biology Corp
Description: as §1

[19] = target: T19, panel of 371 human kinases (Homo sapiens, UniProt P00533); conditions: EGFR; 0.1 μM; 10 μM ATP; read-out: % Enzyme Activity (relative to DMSO controls)
T19 construct: purchased Reaction Biology Corp
Description: as §1

[20] = target: T20, panel of 371 human kinases (Homo sapiens, UniProt Q15303); conditions: ERBB4/HER4; 0.1 μM; 10 μM ATP; read-out: % Enzyme Activity (relative to DMSO controls)
T20 construct: purchased Reaction Biology Corp
T20 sequence (Q15303 26-1308): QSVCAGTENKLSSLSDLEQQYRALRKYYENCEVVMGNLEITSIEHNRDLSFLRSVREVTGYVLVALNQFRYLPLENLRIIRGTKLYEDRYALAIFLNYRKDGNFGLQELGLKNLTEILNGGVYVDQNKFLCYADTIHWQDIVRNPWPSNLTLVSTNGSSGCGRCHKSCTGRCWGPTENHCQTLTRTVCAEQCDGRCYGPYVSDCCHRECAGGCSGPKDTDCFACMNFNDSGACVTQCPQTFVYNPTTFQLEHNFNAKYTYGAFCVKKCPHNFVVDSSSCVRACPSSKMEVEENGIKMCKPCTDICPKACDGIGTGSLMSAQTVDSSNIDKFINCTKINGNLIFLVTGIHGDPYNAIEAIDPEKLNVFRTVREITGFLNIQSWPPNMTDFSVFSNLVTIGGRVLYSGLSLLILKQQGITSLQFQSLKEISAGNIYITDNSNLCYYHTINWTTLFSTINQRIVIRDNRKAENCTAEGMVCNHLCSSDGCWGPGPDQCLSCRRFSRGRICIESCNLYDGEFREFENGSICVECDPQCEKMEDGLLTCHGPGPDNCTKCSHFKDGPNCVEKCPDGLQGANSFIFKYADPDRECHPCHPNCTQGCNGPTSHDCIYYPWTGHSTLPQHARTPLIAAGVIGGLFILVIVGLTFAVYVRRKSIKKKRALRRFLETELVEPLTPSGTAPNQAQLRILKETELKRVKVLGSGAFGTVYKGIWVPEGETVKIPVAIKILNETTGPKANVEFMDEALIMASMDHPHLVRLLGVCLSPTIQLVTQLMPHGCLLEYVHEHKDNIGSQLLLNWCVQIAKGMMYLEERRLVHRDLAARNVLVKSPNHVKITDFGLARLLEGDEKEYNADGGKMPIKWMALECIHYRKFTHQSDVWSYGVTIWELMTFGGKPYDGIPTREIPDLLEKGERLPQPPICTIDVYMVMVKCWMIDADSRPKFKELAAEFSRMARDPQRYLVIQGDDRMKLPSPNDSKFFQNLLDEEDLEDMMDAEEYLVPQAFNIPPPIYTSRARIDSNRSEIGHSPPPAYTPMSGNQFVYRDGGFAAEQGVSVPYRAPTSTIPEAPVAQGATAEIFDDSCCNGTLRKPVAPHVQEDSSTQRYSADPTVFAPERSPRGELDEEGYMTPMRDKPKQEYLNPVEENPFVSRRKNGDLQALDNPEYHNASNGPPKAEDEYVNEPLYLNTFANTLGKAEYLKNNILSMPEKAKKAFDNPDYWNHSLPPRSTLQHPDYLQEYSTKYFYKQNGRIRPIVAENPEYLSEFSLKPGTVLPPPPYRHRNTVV
Description: as §1

[21] = target: T21, panel of 371 human kinases (Homo sapiens, UniProt P42685); conditions: FRK/PTK5; 0.1 μM; 10 μM ATP; read-out: % Enzyme Activity (relative to DMSO controls)
T21 construct: purchased Reaction Biology Corp
Description: as §1

[22] = target: T22, panel of 371 human kinases (Homo sapiens, UniProt Q92630); conditions: DYRK2; 0.1 μM; 10 μM ATP; read-out: % Enzyme Activity (relative to DMSO controls)
T22 construct: purchased Reaction Biology Corp
T22 sequence (Q92630 whole entry): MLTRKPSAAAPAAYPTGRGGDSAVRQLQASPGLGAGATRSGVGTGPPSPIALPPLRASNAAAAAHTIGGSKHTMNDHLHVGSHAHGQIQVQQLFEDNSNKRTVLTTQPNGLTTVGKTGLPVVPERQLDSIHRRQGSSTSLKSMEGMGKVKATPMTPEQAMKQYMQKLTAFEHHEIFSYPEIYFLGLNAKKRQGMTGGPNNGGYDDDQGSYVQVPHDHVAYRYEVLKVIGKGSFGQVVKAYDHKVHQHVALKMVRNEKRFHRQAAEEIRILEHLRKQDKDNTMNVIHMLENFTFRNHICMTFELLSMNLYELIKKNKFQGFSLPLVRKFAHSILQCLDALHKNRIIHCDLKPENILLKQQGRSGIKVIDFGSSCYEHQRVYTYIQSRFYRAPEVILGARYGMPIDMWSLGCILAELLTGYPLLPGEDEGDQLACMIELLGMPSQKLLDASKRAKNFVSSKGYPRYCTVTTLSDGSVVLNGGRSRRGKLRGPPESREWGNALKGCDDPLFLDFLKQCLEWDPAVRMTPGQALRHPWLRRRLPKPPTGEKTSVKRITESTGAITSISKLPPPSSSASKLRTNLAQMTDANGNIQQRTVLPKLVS
Description: as §1

[23] = target: T23, panel of 371 human kinases (Homo sapiens, UniProt P45983); conditions: JNK1; 0.1 μM; 10 μM ATP; read-out: % Enzyme Activity (relative to DMSO controls)
T23 construct: purchased Reaction Biology Corp
Description: as §1

[24] = target: T24, panel of 371 human kinases (Homo sapiens, UniProt P53671); conditions: LIMK2; 0.1 μM; 10 μM ATP; read-out: % Enzyme Activity (relative to DMSO controls)
T24 construct: purchased Reaction Biology Corp
Description: as §1

| Compound | remaining activity at 0.1 µM [1] [%] | remaining activity at 0.1 µM [2] [%] | remaining activity at 0.1 µM [3] [%] | remaining activity at 0.1 µM [4] [%] | remaining activity at 0.1 µM [5] [%] | remaining activity at 0.1 µM [6] [%] | remaining activity at 0.1 µM [7] [%] | remaining activity at 0.1 µM [8] [%] | remaining activity at 0.1 µM [9] [%] | remaining activity at 0.1 µM [10] [%] | remaining activity at 0.1 µM [11] [%] | remaining activity at 0.1 µM [12] [%] | remaining activity at 0.1 µM [13] [%] | remaining activity at 0.1 µM [14] [%] | remaining activity at 0.1 µM [15] [%] | remaining activity at 0.1 µM [16] [%] | remaining activity at 0.1 µM [17] [%] | remaining activity at 0.1 µM [18] [%] | remaining activity at 0.1 µM [19] [%] | remaining activity at 0.1 µM [20] [%] | other results |
| --- | --- | --- | --- | --- | --- | --- | --- | --- | --- | --- | --- | --- | --- | --- | --- | --- | --- | --- | --- | --- | --- |
| CN1CCN(Cc2ccc(-c3cnc4[nH]cc(-c5ccc6[nH]ccc6c5)c4c3)cc2)CC1 [Compound 1, 3-(1H-Indol-5-yl)-5-(4-((4-methylpiperazin-1-yl)methyl)phenyl)-1H-pyrrolo[2,3-b]pyridine, reference compound] | 92.2 | 106 | 95 | 97.8 | 93.2 | 110 | 74.2 | 74.9 | 91.3 | 98 | 81.2 | 89.6 | 90 | 99.5 | 76.2 | 102 | 102 | 106 | 103 | 104 | remaining activity at 0.1 µM [21]: 91.1%; remaining activity at 0.1 µM [22]: 71.7%; remaining activity at 0.1 µM [23]: 98.2%; remaining activity at 0.1 µM [24]: 103% |
| OCCN1CCN(Cc2ccc(-c3cnc4[nH]cc(-c5cccc(Cl)c5)c4c3)cc2)CC1 [Compound 12k, 2-(4-(4-(3-(3-Chlorophenyl)-1H-pyrrolo[2,3-b]pyridin-5-yl)benzyl)piperazin-1-yl)ethan-1-ol] | 92.4 | 103 | 103 | 101 | 98.5 | 92.7 | 89.4 | 89.2 | 77.9 | 93.5 | 75.1 | 93.9 | 92.8 | 101 | 84.7 | 72.4 | 86 | 100 | 96.2 | 97.2 | remaining activity at 0.1 µM [21]: 98.3%; remaining activity at 0.1 µM [22]: 85.6%; remaining activity at 0.1 µM [23]: 86.8%; remaining activity at 0.1 µM [24]: 101% |
